In PMC5597302 (Angewandte Chemie (International ed. in English), 2016):

Tests used:
[1] = target: uPAR (Homo sapiens, UniProt Q03405); conditions: read-out: affinity for uPAR; reported value; ref 8a; cited from earlier work
[2] = tested on: B16 melanoma cells expressing human uPAR; assay: B16-uPAR mouse allograft model; conditions: Dox 1 mpk

uPAR, sequence (Q03405 23-335): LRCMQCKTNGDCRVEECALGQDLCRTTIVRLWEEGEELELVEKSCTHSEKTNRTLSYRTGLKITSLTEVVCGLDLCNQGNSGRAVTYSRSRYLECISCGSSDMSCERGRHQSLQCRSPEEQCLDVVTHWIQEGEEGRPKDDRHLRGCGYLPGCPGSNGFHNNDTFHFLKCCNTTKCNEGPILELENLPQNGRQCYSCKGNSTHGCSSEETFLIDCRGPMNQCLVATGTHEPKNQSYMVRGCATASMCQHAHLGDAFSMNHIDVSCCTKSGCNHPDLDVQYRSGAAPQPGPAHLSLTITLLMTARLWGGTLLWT

Row | Compound | Kd [1] | level of TGI relative to ARM-U2 ([2]; daily IP, combination ARM-U2 20 mpk and Dox 1 mpk) | body weight loss ([2]; throughout the experiments, ARM-U2 20 or 100 mpk)
1 | O=C(O)c1cccc(Nc2cc(N3CCCCCC3)c3noc4c3c2C(=O)c2ccccc2-4)c1 [IPR-803] | 200 nM | – | –
2 | COc1cccc2c1C(=O)c1c(O)c3c(c(O)c1C2=O)C[C@@](O)(C(=O)CO)C[C@@H]3O[C@H]1C[C@H](N)[C@H](O)[C@H](C)O1 [Dox, doxorubicin] | – | comparable | significant levels of weight loss
